Reference: patent US6492174B1, “Methods of initiating embryogenic cultures in plants” (Institute of Paper Science & Technology, priority 2000, dated 2002)

Assays:
Assay type in all cases: cell-based
[1] = system: Norway spruce zygotic embryos; experiment: Norway spruce initiation on solid media #56 with ABA, brassinolide or elevated pressure, ten weeks
Procedure: Explants were zygotic embryos flipped out of the megagametophyte, prepared as in Example 1. The experiment consisted of five replications, with a replication consisting of ten explants in a single petri dish. Explants were cultured on solid media #56 (Table 3). Treatment #1 consisted of explants on media #56. In Treatment #2, the medium additionally contained 1 ppm ABA. In Treatment #3, the media contained […] brassinolide. In Treatment #4, the explants were cultured under 1.5 atmospheres of pressure. After ten weeks, the explants were examined and the frequency of embryogenic culture initiation was scored (Table 43).

[2] = system: Loblolly pine megagametophytes; experiment: 30 minute abscisic acid soaking pre-treatment, culture on solid media #1042 with or without 0.1 μM brassinolide, eight weeks
Procedure: In this experiment, the effects of ovule pre-treatment by soaking with abscisic acid solutions of varying concentration was investigated. The abscisic acid treatment was tested on two media, one containing brassinolide and one lacking in brassinolide. The explants were megagametophytes from open pollinated summer cones of four individual trees, representing a multiplicity of genotypes. The seeds contained Stage 2-4 zygotic embryos. Megagametophytes were excised from sterilized seeds, as described in Example 4.
Prior to culturing, the megagametophytes were soaked for 30 minutes in liquid growth media (media #1042, Table 47, minus the gelling agent) containing 0, 5, 10 and 20 ppm abscisic acid. After soaking, the megagametophytes were placed on either one of two solid growth media. While still liquid, 2 ml media was poured into wells on a culture well plate and allowed to solidify. Half the soaked megagametophytes were placed on solid media #1042 (Table 47) and half were placed on solid media #1042 with 0.1 μM brassinolide added.
On solid media where brassinolide was present, there was a dramatic difference in extrusion and initiation between megagametophytes soaked in zero and 5 ppm ABA solutions (Treatments #5 and #6) compared to those soaked in 10 and 20 ppm ABA solutions (Treatments #7 and #8). […] In contrast, megagametophytes treated with higher amounts of ABA in Treatments 7 and 8 had the highest initiation frequencies of any treatment. […] Alternatively, there may have been an interaction between brassinolide and ABA such that low ABA plus brassinolide inhibits extrusion, with this inhibition overcome when ABA concentration is higher.

[3] = system: Loblolly pine megagametophytes; experiment: Elevated pressure in combination with brassinolide, ABA pre-soak or liquid media #1038, 8 weeks; details: for % Megagametophytes Extruding / % Megagametophytes Initiating: Br 0.1 μM in media #1042, ABA soak 5 ppm 30 minute
Procedure: The previous examples indicate that elevated pressure can enhance extrusion and initiation. This experiment was designed to test the effect of elevated pressure in combination with other treatments to determine the optimal conditions for promoting extrusion and initiation.
Megagametophytes in some treatments received a 30 minute pre-culturing soak in liquid media (#1042 minus the gelling agent) containing 5 ppm ABA. Megagametophytes in Treatments 9 and 10 were fully immersed in liquid media #1038. The experiment consisted of three replications per treatment, per genotype.
Five different treatments were used, each cultured under 1.0 or 1.5 atmospheres for a total of ten treatments (See Table 33).
After 8 weeks culturing, the treatments were scored. Extrusion and initiation were increased by elevated pressure in all treatments.

[4] = system: Douglas fir stage 3-5 zygotic embryos attached to megagametophytes; experiment: Douglas fir initiation on solid media #121 with brassinolide, ABA, ABA pre-soak or elevated pressure
Excerpt: The explants used in this experiment were isolated from Douglas fir cones collected in mid-summer from four open-pollinated trees, representing a multiplicity of genotypes. Explants were stage 3-5 (early-midstage) zygotic embryos attached to megagametophytes, prepared as described in Example 2. The embryo and attached megagametophyte were then placed next to each other on the treatment media. As in Example 2, each replication consisted of ten explants in a single petri dish. Each treatment contained four replications per treatment, per genotype.
The treatment media were based on solid media #121, the composition of which is described in Table 5. Media #121 contains no ABA or brassinolide. Treatment #1, the control, consisted of explants cultured on media #121 alone. In Treatment #2, explants were cultured on media #121 containing 0.1 μM brassinolide. In Treatment #3, explants were cultured on media #121 containing 1 ppm ABA. In treatment #4, explants were soaked in liquid media containing 5 ppm ABA for 30 minutes prior to being placed on #121 media. In Treatment #5, explants were cultured on media #121 under 1.5 atmospheres of pressure. The petri dishes were wrapped in PARAFILM and incubated at 23-24° C. in the dark.

[5] = genotype 7-1051, 5 ppm ABA/No Br
[6] = genotype 7-1051, 10 ppm ABA/No Br
[7] = genotype 7-1051, 20 ppm ABA/No Br
[8] = genotype M7-56, 5 ppm ABA/No Br
[9] = genotype M7-56, 10 ppm ABA/No Br
[10] = genotype M7-56, 20 ppm ABA/No Br
[11] = genotype TC5-1501, 5 ppm ABA/No Br
[12] = genotype TC5-1501, 10 ppm ABA/No Br
[13] = genotype TC5-1501, 20 ppm ABA/No Br
[14] = genotype TC11-109, 5 ppm ABA/No Br
[15] = genotype TC11-109, 10 ppm ABA/No Br
[16] = genotype TC11-109, 20 ppm ABA/No Br
[17] = genotype 7-100, + Pressure 1.5 atm
[18] = genotype 11-1095, + Pressure 1.5 atm
[19] = genotype 21-6, + Pressure 1.5 atm
[20] = genotype 7-1051, 0 ppm ABA/ +Br (0.10 μM)
[21] = genotype M7-56, 0 ppm ABA/ +Br (0.10 μM)
[22] = genotype TC5-1501, 0 ppm ABA/ +Br (0.10 μM)
[23] = genotype TC11-109, 0 ppm ABA/ +Br (0.10 μM)
[24] = total, 0 ppm ABA/ +Br (0.10 μM)

## CC1=CC(=O)CC(C)(C)C1(O)/C=C/C(C)=C\C(=O)O (stereo not shown) [ABA, 5-(1-hydroxy-2,6,6,-trimethyl-4-oxo-2-cyclohexen-1-yl)-3-methyl-2,4-penta dienoic acid]
[1]; 1 ppm ABA added to medium #56
  % Initiating (std. error): 47.4 (5.5) %
[2]; [5]
  % Megagametophytes Extruding: 53.3 (8.8) %
  Embryogenic Culture Initiation - % Megagametophytes Extruding: 20.0 (10.0) %
[2]; [6]
  % Megagametophytes Extruding: 30.0 (5.8) %
  Embryogenic Culture Initiation - % Megagametophytes Extruding: 6.7 (3.3) %
[2]; [7]
  % Megagametophytes Extruding: 40.0 (5.8) %
  Embryogenic Culture Initiation - % Megagametophytes Extruding: 13.3 (3.3) %
[2]; [8]
  % Megagametophytes Extruding: 20.0 (5.8) %
  Embryogenic Culture Initiation - % Megagametophytes Extruding: 13.3 (3.3) %
[2]; [9]
  % Megagametophytes Extruding: 26.7 (6.7) %
  Embryogenic Culture Initiation - % Megagametophytes Extruding: 13.3 (3.3) %
[2]; [10]
  % Megagametophytes Extruding: 36.7 (8.8) %
  Embryogenic Culture Initiation - % Megagametophytes Extruding: 6.7 (6.7) %
[2]; [11]
  % Megagametophytes Extruding: 33.3 (6.7) %
  Embryogenic Culture Initiation - % Megagametophytes Extruding: 10.0 (0.0) %
[2]; [12]
  % Megagametophytes Extruding: 16.7 (8.8) %
  Embryogenic Culture Initiation - % Megagametophytes Extruding: 3.3 (3.3) %
[2]; [13]
  % Megagametophytes Extruding: 40.0 (11.5) %
  Embryogenic Culture Initiation - % Megagametophytes Extruding: 6.7 (3.3) %
[2]; [14]
  % Megagametophytes Extruding: 33.3 (3.3) %
  Embryogenic Culture Initiation - % Megagametophytes Extruding: 10.0 (5.8) %
[2]; [15]
  % Megagametophytes Extruding: 46.7 (13.3) %
  Embryogenic Culture Initiation - % Megagametophytes Extruding: 13.3 (3.3) %
[2]; [16]
  % Megagametophytes Extruding: 46.7 (12.0) %
  Embryogenic Culture Initiation - % Megagametophytes Extruding: 13.3 (3.3) %
[2]; soaking pretreatment, media where no brassinolide was present (Treatments #1-4)
  promotion of extrusion or initiation: did not promote extrusion or initiation
[2]; total, 5 ppm ABA/No Br
  % Megagametophytes Extruding: 35.0%
  Embryogenic Culture Initiation - % Megagametophytes Extruding: 13.3%
[2]; total, 10 ppm ABA/No Br
  % Megagametophytes Extruding: 30.0%
  Embryogenic Culture Initiation - % Megagametophytes Extruding: 9.2%
[2]; total, 20 ppm ABA/No Br
  % Megagametophytes Extruding: 40.9%
  Embryogenic Culture Initiation - % Megagametophytes Extruding: 10.0%
[3]; Total, 1.0 atm
  % Megagametophytes Extruding: 38.4%
  % Megagametophytes Initiating: 21.5%
[3]; Total, + Pressure 1.5 atm
  % Megagametophytes Extruding: 46.7%
  % Megagametophytes Initiating: 24.4%
[3]; genotype 7-100, 1.0 atm
  % Megagametophytes Extruding: 10.0 (5.8) %
  % Megagametophytes Initiating: 3.3 (3.3) %
[3]; [17]
  % Megagametophytes Extruding: 23.3 (13.3) %
  % Megagametophytes Initiating: 3.3 (3.3) %
[3]; genotype 11-1095, 1.0 atm
  % Megagametophytes Extruding: 50.0 (0.0) %
  % Megagametophytes Initiating: 23.3 (6.7) %
[3]; [18]
  % Megagametophytes Extruding: 50.0 (5.8) %
  % Megagametophytes Initiating: 20.0 (5.8) %
[3]; genotype 21-6, 1.0 atm
  % Megagametophytes Extruding: 55.2 (8.7) %
  % Megagametophytes Initiating: 37.8 (11.8) %
[3]; [19]
  % Megagametophytes Extruding: 66.7 (8.8) %
  % Megagametophytes Initiating: 50.0 (11.5) %
[4]; genotype T0232l, +1 ppm ABA in media #121
  % of Megagametophytes Initiating - Mean: 21.1%
[4]; genotype T0232l, ABA pre-soak (5 ppm, 30 minutes)
  % of Megagametophytes Initiating - Mean: 27.6%
[4]; genotype T0235l, +1 ppm ABA in media #121
  % of Megagametophytes Initiating - Mean: 10.5%
[4]; genotype T0235l, ABA pre-soak (5 ppm, 30 minutes)
  % of Megagametophytes Initiating - Mean: 25.0%
[4]; genotype T0293l, +1 ppm ABA in media #121
  % of Megagametophytes Initiating - Mean: 34.6%
[4]; genotype T0293l, ABA pre-soak (5 ppm, 30 minutes)
  % of Megagametophytes Initiating - Mean: 26.9%
[4]; genotype T0525l, +1 ppm ABA in media #121
  % of Megagametophytes Initiating - Mean: 10.0%
[4]; genotype T0525l, ABA pre-soak (5 ppm, 30 minutes)
  % of Megagametophytes Initiating - Mean: 20.0%
[4]; total, +1 ppm ABA in media #121
  % of Megagametophytes Initiating - Mean: 19.1%
[4]; total, ABA pre-soak (5 ppm, 30 minutes)
  % of Megagametophytes Initiating - Mean: 24.6%

## CC(C)[C@H](C)[C@@H](O)[C@H](O)[C@@H](C)[C@H]1CC[C@H]2[C@@H]3COC(=O)[C@H]4C[C@H](O)[C@H](O)C[C@]4(C)[C@H]3CC[C@]12C [brassinolide]
[1]; 0.1 pM brassinolide added to medium #56
  % Initiating (std. error): 46.2 (6.1) %
[2]; [20]
  % Megagametophytes Extruding: 13.3 (6.7) %
  Embryogenic Culture Initiation - % Megagametophytes Extruding: 0.0 (0.0) %
[2]; [21]
  % Megagametophytes Extruding: 3.3 (3.3) %
  Embryogenic Culture Initiation - % Megagametophytes Extruding: 0.0 (0.0) %
[2]; [22]
  % Megagametophytes Extruding: 0.0 (0.0) %
  Embryogenic Culture Initiation - % Megagametophytes Extruding: 0.0 (0.0) %
[2]; [23]
  % Megagametophytes Extruding: 0.0 (0.0) %
  Embryogenic Culture Initiation - % Megagametophytes Extruding: 0.0 (0.0) %
[2]; [24]
  % Megagametophytes Extruding: 4.2%
  Embryogenic Culture Initiation - % Megagametophytes Extruding: 0%
[3]; Total, 1.0 atm
  % Megagametophytes Extruding: 32.2%
  % Megagametophytes Initiating: 24.2%
[3]; Total, + Pressure 1.5 atm
  % Megagametophytes Extruding: 55.9%
  % Megagametophytes Initiating: 38.7%
[3]; Treatment #4 vs. #3
  increase of initiation frequency by pressure: over 60%
[3]; genotype 7-100, 1.0 atm
  % Megagametophytes Extruding: 3.3 (3.3) %
  % Megagametophytes Initiating: 0.0 (0.0) %
[3]; [17]
  % Megagametophytes Extruding: 43.3 (8.8) %
  % Megagametophytes Initiating: 20.0 (5.8) %
[3]; genotype 11-1095, 1.0 atm
  % Megagametophytes Extruding: 56.7 (6.7) %
  % Megagametophytes Initiating: 39.2 (11.6) %
[3]; [18]
  % Megagametophytes Extruding: 50.0 (21.7) %
  % Megagametophytes Initiating: 39.2 (18.6) %
[3]; genotype 21-6, 1.0 atm
  % Megagametophytes Extruding: 36.7 (6.7) %
  % Megagametophytes Initiating: 33.3 (8.8) %
[3]; [19]
  % Megagametophytes Extruding: 74.4 (12.4) %
  % Megagametophytes Initiating: 56.9 (13.7) %
[4]; genotype T0232l, +0.1 μM Br in media #121
  % of Megagametophytes Initiating - Mean: 27.8%
[4]; genotype T0235l, +0.1 μM Br in media #121
  % of Megagametophytes Initiating - Mean: 21.8%
[4]; genotype T0293l, +0.1 μM Br in media #121
  % of Megagametophytes Initiating - Mean: 34.6%
[4]; genotype T0525l, +0.1 μM Br in media #121
  % of Megagametophytes Initiating - Mean: 30.0%
[4]; total, +0.1 μM Br in media #121
  % of Megagametophytes Initiating - Mean: 31.1%
